The target of one experiment is T1, bovine trypsin (Bos taurus, UniProt P00760).
T1 sequence (P00760 24-246): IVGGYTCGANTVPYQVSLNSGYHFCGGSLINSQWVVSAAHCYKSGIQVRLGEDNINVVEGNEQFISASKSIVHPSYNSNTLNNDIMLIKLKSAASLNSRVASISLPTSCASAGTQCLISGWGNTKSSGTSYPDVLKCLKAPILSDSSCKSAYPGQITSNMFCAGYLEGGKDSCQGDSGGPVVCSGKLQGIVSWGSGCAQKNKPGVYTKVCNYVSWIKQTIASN
Nature of the experiment: Surface plasmon resonance binding to trypsin. Background: Surface plasmon resonance follows binding to a sensor surface in real time, without labels.

For another experiment, the target named is T2, Human β-FXIIa (Homo sapiens, UniProt P00748).
T2 construct: Human β-FXIIa was obtained from Molecular Innovations, together with human FXa, human FXIa, human α-thrombin, and human plasma kallikrein; purchased Molecular Innovations; host or cells: purified from human plasma
As to the kind of experiment: FXIIa competitive inhibition assay, colorimetric substrate Ac-QRFR-pNA. The format is biochemical. As to the method: The activity of acyclic and cyclic MCoFx1-5 and analogues thereof was assessed in competitive inhibition assays, as previously described in Swedberg et al. (2016) J Med Chem, 59: 7287-7292. Human β-FXIIa was obtained from Molecular Innovations, together with human FXa, human FXIa, human α-thrombin, and human plasma kallikrein. Human cationic trypsin and human plasmin were obtained from Sigma-Aldrich, and recombinant human matriptase was sourced from R&D Systems. Recombinant human urokinase (uPA) and recombinant human tissue plasminogen activator (tPA) were expressed in Expi293 cells, as previously described in Li et al. (2019) Chembiochem, 20: 46-50. FXIIa inhibition assays were performed in clear, low-binding 96-well plates using 250 μL (final volume) of assay buffer (0.1 M Tris-HCl pH 8.0, 0.1 M NaCl, 10 mM CaCl2 and 0.005% Triton X-100). Inhibitors were serially diluted and incubated with 10 nM FXIIa at room temperature to reach equilibrium. After adding 100 μM Ac-QRFR-pNA substrate (KM=162 μM), enzymatic activity was measured by monitoring release of the pNA moiety using a TECAN infinite M1000 Pro plate reader (A=405 nm, reading interval, 10 s; assay time course, 7 min). Assays were conducted in three times in duplicate. Substrate kinetic constants (Michaelis-Menten) and inhibition constants (Morrison K) were determined by non-linear regression using Prism 7 (GraphPad). Selectivity assays with off-target proteases were performed in a similar way, except that different concentrations of enzyme and substrate were used, as indicated in Table 16. For assays using a fluorescent substrate (peptide-4-methylcoumaryl-7-amide, MCA), black low-binding 96-well plates were used and activity was measured using a TECAN infinite M1000 pro plate reader (λex 360 nm, λem 460 nm, reading interval, 30 s; assay time course, 5-30 min).

Experiment [1] deals with T3, biotinylated human β-FXIIa (Homo sapiens, UniProt P00748).
T3 construct: purchased Molecular Innovations
As to the kind of experiment: Surface plasmon resonance binding to FXIIa. As to the method:
Binding kinetics of each peptide towards biotinylated human β-FXIIa (Molecular Innovations) and non-labelled zymogen FXII (Haematologic Technologies) were determined using a Biacore T200 machine (Cytiva). For β-FXIIa binding measurements, the running buffer was HBS-EP+(10 mM HEPES, 150 mM NaCl, 3 mM EDTA and 0.05% (v/v) surfactant P20, pH 7.4). Biotinylated β-FXIIa was immobilized on a Sensor Chip CAP (Cytiva) using Biotin CAPture Reagent (Cytiva). A series of concentrations of each peptide were injected as analyte and the binding kinetics were modelled using a 1:1 binding model. Regeneration of sensor surface was performed after each measurement cycle. For FXII binding measurements, the running buffer was PBST (137 mM NaCl, 2.7 mM KCl, 10 mM Na2HPO4, 1.8 mM KH2PO4, 0.05% Tween-20). Non-labelled FXII was immobilized on a Sensor Chip CM5 (Cytiva) using Amine Coupling Kit (Cytiva), achieving a final immobilization level of 2500 RU. Each peptide was flowed through immobilized FXII at 5 μM for 60 s and allowed dissociation for 150 s.

Structures are written as SMILES. Read-outs that look alike come from different tables or passages of the source. Bridge positions count the residues as written; N and C are the ends. Peptide text beside a SMILES is read from it.

T3 sequence (P00748 373-615 limits assumed, other chains not shown): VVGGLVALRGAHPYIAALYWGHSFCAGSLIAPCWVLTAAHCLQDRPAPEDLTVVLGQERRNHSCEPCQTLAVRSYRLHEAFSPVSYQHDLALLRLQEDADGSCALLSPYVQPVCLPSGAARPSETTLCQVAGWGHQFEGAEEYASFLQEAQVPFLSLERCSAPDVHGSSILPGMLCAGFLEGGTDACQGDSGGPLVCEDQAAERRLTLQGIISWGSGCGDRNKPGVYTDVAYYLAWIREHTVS
T2 sequence (P00748 373-615 limits assumed, other chains not shown): as above

As a reminder, the Kd is the constant that tells how readily two partners part at equilibrium. As usually defined, the Ki is the dissociation constant of the complex between target and ligand, obtained from inhibition or displacement. Take `CC[C@H](C)[C@@H]1NC(=O)[C@@H]2CSSC[C@H](NC(=O)[C@H](CCCNC(=N)N)NC(=O)CNC(=O)CNC(=O)[C@@H](N)CC(=O)O)C(=O)N3CCC[C@H]3C(=O)N[C@@H](CCCNC(=N)N)C(=O)N[C@@H](CC(C)C)C(=O)N[C@@H](CC(C)C)C(=O)N[C@@H](CCCNC(=N)N)C(=O)N[C@@H](Cc3c[nH]c4ccccc34)C(=O)N[C@H]3CSSC[C@H](NC1=O)C(=O)N[C@@H](C)C(=O)N[C@@H](CCCNC(=N)N)C(=O)NCC(=O)NCC(=O)N[C@@H](CC(C)C)C(=O)N[C@H](C(=O)NCC(=O)N[C@@H](CO)C(=O)NCC(=O)N[C@@H](CO)C(=O)O)CSSC[C@H](NC(=O)[C@H](CC(=O)O)NC(=O)[C@H](CO)NC(=O)[C@H](CC(=O)O)NC(=O)[C@H](CCCNC(=N)N)NC(=O)[C@H](CCCNC(=N)N)NC3=O)C(=O)N1CCC[C@H]1C(=O)NCC(=O)N[C@@H](C)C(=O)N2` [MCoFx3 acyclic] (H-DGGRCPRLLRWCRRDSDCPGACICARGGLCGSGS-OH; disulfide 5-22, 12-24, 18-30): the Kd at bovine trypsin is 2.39 nM; in experiment [1], 167 ± 40 nM. The inhibition constant (Ki) on Human β-FXIIa came to 525 ± 30 nM.
For the compound `CC[C@H](C)[C@@H]1NC(=O)[C@@H]2CSSC[C@H](NC(=O)[C@@H](NC(=O)CNC(=O)CNC(=O)[C@@H](N)CC(=O)O)C(C)C)C(=O)N3CCC[C@H]3C(=O)N[C@@H](CCCNC(=N)N)C(=O)N[C@@H](C(C)C)C(=O)NCC(=O)N[C@@H](Cc3c[nH]c4ccccc34)C(=O)N[C@@H](CCCNC(=N)N)C(=O)N[C@H]3CSSC[C@H](NC1=O)C(=O)N[C@@H](Cc1ccc(O)cc1)C(=O)N1CCC[C@H]1C(=O)N[C@@H]([C@@H](C)O)C(=O)N[C@@H](CCCCN)C(=O)N[C@@H](Cc1c[nH]c4ccccc14)C(=O)N[C@H](C(=O)NCC(=O)N[C@@H](CO)C(=O)NCC(=O)N[C@@H](CO)C(=O)O)CSSC[C@H](NC(=O)[C@H](CC(=O)O)NC(=O)[C@H](CO)NC(=O)[C@H](CC(=O)O)NC(=O)[C@H](CCCNC(=N)N)NC(=O)[C@H](CCCNC(=N)N)NC3=O)C(=O)N1CCC[C@H]1C(=O)NCC(=O)N[C@@H](C)C(=O)N2` [MCoFx4 acyclic] (H-DGGVCPRVGWRCRRDSDCPGACICYPTKWCGSGS-OH; disulfide 5-22, 12-24, 18-30), the dissociation constant Kd is 15.1 nM on bovine trypsin and 73.8 ± 6.3 nM in experiment [1]. At Human β-FXIIa, affinity was put at a Ki of 17 ± 0.9 nM.
As to `CC[C@H](C)[C@@H]1NC(=O)[C@@H]2CSSC[C@@H]3NC(=O)[C@H](C(C)C)NC(=O)CNC(=O)CNC(=O)[C@H](CC(=O)O)NC(=O)[C@H](CO)NC(=O)CNC(=O)[C@H](CO)NC(=O)CNC(=O)[C@@H]4CSSC[C@H](NC(=O)[C@H](CC(=O)O)NC(=O)[C@H](CO)NC(=O)[C@H](CC(=O)O)NC(=O)[C@H](CCCNC(=N)N)NC(=O)[C@H](CCCNC(=N)N)NC(=O)[C@H](CSSC[C@H](NC1=O)C(=O)N[C@@H](Cc1ccc(O)cc1)C(=O)N1CCC[C@H]1C(=O)N[C@@H]([C@@H](C)O)C(=O)N[C@@H](CCCCN)C(=O)N[C@@H](Cc1c[nH]c5ccccc15)C(=O)N4)NC(=O)[C@H](CCCNC(=N)N)NC(=O)[C@H](Cc1c[nH]c4ccccc14)NC(=O)CNC(=O)[C@H](C(C)C)NC(=O)[C@H](CCCNC(=N)N)NC(=O)[C@@H]1CCCN1C3=O)C(=O)N1CCC[C@H]1C(=O)NCC(=O)N[C@@H](C)C(=O)N2` [MCoFx4 cyclic] (cyclo(ACICYPTKWCGSGSDGGVCPRVGWRCRRDSDCPG); disulfide 2-19, 4-26, 10-32), the Kd on bovine trypsin (Table 8, cyclic form, read-out: KD (nM) Trypsin Cyclic) is 4.09 nM; in experiment [1] (Table 8, cyclic form, read-out: KD (nM) FXIIa Cyclic) it was 14.4 ± 1.1 nM. At Human β-FXIIa (Table 7, FXIIa, cyclic form of the peptide, read-out: Ki (nM) Cyclic), the Ki came out at 5.5 ± 0.5 nM.
